TGI data for 20 compounds are collected here from PubChem BioAssay (NCI).

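Cultured in 96-well plates, cells were exposed to test compound for 48 hours across five concentrations. TGI marks complete inhibition of growth.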

Test systems include DLD-1 colon; HL-60(TB) leukemia; SF-295 CNS; HOP-62 NSCLC; SF-539 CNS; M19-MEL melanoma; LOX IMVI melanoma; PC-3 prostate; NCI/ADR-RES ovarian; HS 578T breast.
Holding throughout (assay): NCI-60 cell line screen, 48 h

Regarding `CNS(=O)(=O)NNS(=O)(=O)c1ccc(Cl)cc1`, the TGI in the test on DLD-1 colon, in the test on HL-60(TB) leukemia, in the test on SF-295 CNS, in the test with HOP-62 NSCLC, with SF-539 CNS and in the test on M19-MEL melanoma was more than 100 µM each time.

As for `O=C(O)/C(Cl)=C(\Cl)C(=O)Nc1ccc(Cl)c(Cl)c1Cl`, the TGI in the test with DLD-1 colon is 47.3 µM; with HL-60(TB) leukemia it was 45.4 µM; in the test with SF-295 CNS it was 33 µM; in the test on HOP-62 NSCLC it was 62.3 µM; in the test with SF-539 CNS, 35.6 µM; with LOX IMVI melanoma it was 31.2 µM. This compound showed a TGI in the test on M19-MEL melanoma of 30.8 µM.

For `COC(=O)C(C)(C)N=CN(C)C`, the TGI with DLD-1 colon, in the test on HL-60(TB) leukemia, with SF-295 CNS, in the test on HOP-62 NSCLC, with SF-539 CNS and in the test with LOX IMVI melanoma was more than 100 µM each time. This compound had a TGI with M19-MEL melanoma of more than 100 µM.

Consider `CC1CN1c1c(C(=O)/C=C/c2ccccc2)c(-c2ccccc2)nn(C)c1=O` (stereo not drawn), for which the TGI with DLD-1 colon amounted to 34.5 µM; in the test on HL-60(TB) leukemia, 49.7 µM; in the test on SF-295 CNS it was 46.8 µM; in the test on HOP-62 NSCLC, 46.3 µM; with SF-539 CNS it was 30.7 µM; with LOX IMVI melanoma, 31.1 µM. Besides, the TGI in the test on M19-MEL melanoma worked out at 35.1 µM.

For the compound `CC1(C)C2CCC13CS(=O)(=O)N1O[C@]13C(=O)O2` (stereo partly drawn), the TGI with DLD-1 colon, in the test on HL-60(TB) leukemia, with SF-295 CNS, in the test on HOP-62 NSCLC, in the test on SF-539 CNS and in the test with LOX IMVI melanoma was more than 100 µM throughout. This compound also returned a TGI with M19-MEL melanoma of more than 100 µM.

For the compound `CCOC(=O)C(=O)Nc1cc(Cl)ccc1Cl`, the TGI in the test with DLD-1 colon, in the test on HL-60(TB) leukemia, in the test with SF-295 CNS, with HOP-62 NSCLC, in the test on SF-539 CNS and in the test with M19-MEL melanoma was more than 100 µM throughout.

As for `Cc1cc(N(CCC#N)CCC#N)ccc1/C=C1N=C(/C=C\c2ccccc2)N(c2ccc(Cl)cc2)C\1=O`, the TGI is more than 100 µM in the test on DLD-1 colon; more than 100 µM in the test on HL-60(TB) leukemia; more than 100 µM in the test with SF-295 CNS; more than 100 µM in the test with PC-3 prostate; more than 63.5 µM in the test on HOP-62 NSCLC; more than 100 µM in the test with SF-539 CNS. Also, the TGI with NCI/ADR-RES ovarian was more than 100 µM; in the test on LOX IMVI melanoma, more than 100 µM; with HS 578T breast, more than 100 µM; in the test on M19-MEL melanoma, more than 82.7 µM.

On to `CN(C)c1ccc(/C=C2\C=Cc3ccccc32)cc1`, for which the TGI in the test on DLD-1 colon, with HL-60(TB) leukemia, in the test on SF-295 CNS, in the test with HOP-62 NSCLC, with SF-539 CNS and with LOX IMVI melanoma was more than 100 µM in each case. Further, in the test on M19-MEL melanoma, the TGI is more than 100 µM.

Turning to `CC(C)c1c2[nH]c3ccccc3c2c(C(C)C)c2[nH]c3ccccc3c12`, the TGI is more than 100 µM with DLD-1 colon; more than 62.5 µM in the test on HL-60(TB) leukemia; more than 100 µM in the test with SF-295 CNS; more than 100 µM in the test on HOP-62 NSCLC; more than 100 µM with SF-539 CNS; more than 100 µM in the test with LOX IMVI melanoma. Moreover, the TGI in the test with M19-MEL melanoma was more than 100 µM.

In the case of `CCCCCCCCCCCCCP(=O)(O)NCC(N)=O`, the TGI with DLD-1 colon was more than 100 µM; with HL-60(TB) leukemia, 67.3 µM; in the test on SF-295 CNS, more than 100 µM; in the test with HOP-62 NSCLC, more than 100 µM; in the test on SF-539 CNS it was more than 100 µM; in the test on LOX IMVI melanoma, more than 100 µM. The compound further yielded a TGI with M19-MEL melanoma of more than 100 µM.

Turning to `COC(CN1C=C(Sc2ccccc2)CC1)OC`, the TGI is more than 100 µM in the test with DLD-1 colon; 34 µM in the test with HL-60(TB) leukemia; 71 µM in the test on SF-295 CNS; more than 100 µM in the test with HOP-62 NSCLC; 68.3 µM with SF-539 CNS; 56.3 µM in the test on LOX IMVI melanoma. In the test on M19-MEL melanoma, this compound came in with a TGI of 97.7 µM.

As to `CN(C)CCC(/C=C/c1ccccc1)=N\Nc1ccc(Cl)cc1Cl`, the TGI in the test with DLD-1 colon was 27.9 µM; with HL-60(TB) leukemia it was 16.7 µM; in the test on SF-295 CNS it was 30.2 µM; in the test on HOP-62 NSCLC, 27.9 µM; in the test on SF-539 CNS it was 29 µM; in the test on M19-MEL melanoma, 29 µM.

In the case of `C/C=C(\C)c1cc(O)c(C)c2c1Oc1cc(O)c(Cl)c(C)c1C(=O)O2`, the TGI stood at 33.9 µM in the test on DLD-1 colon; 67.3 µM in the test with HL-60(TB) leukemia; 32.4 µM in the test with SF-295 CNS; 51.1 µM in the test with HOP-62 NSCLC; 48.2 µM with SF-539 CNS; 31.6 µM in the test with LOX IMVI melanoma. For the same compound, the TGI in the test on M19-MEL melanoma is 81.8 µM.

With `Fc1cccc(C2SCc3nc4ccccc4n32)c1F` (stereo not drawn), the TGI in the test with DLD-1 colon was more than 100 µM; with HL-60(TB) leukemia, 46.9 µM; in the test with SF-295 CNS, more than 100 µM; with HOP-62 NSCLC, more than 100 µM; in the test with SF-539 CNS it was more than 100 µM; with LOX IMVI melanoma it was more than 100 µM. The TGI in the test with M19-MEL melanoma is more than 100 µM.

Turning to `CCOC1=C2N=C(Cc3ccccc3F)N=C2C(=O)c2ccccc21`, the TGI in the test on DLD-1 colon, with HL-60(TB) leukemia, with SF-295 CNS, in the test with HOP-62 NSCLC, with SF-539 CNS and in the test on M19-MEL melanoma was more than 100 µM throughout.

For the compound `Cn1c2ccccc2n2c(=O)c3c(c(C#N)c12)CCCC3`, the TGI in the test on DLD-1 colon, with HL-60(TB) leukemia, in the test on SF-295 CNS, in the test on HOP-62 NSCLC, in the test with SF-539 CNS and with LOX IMVI melanoma was more than 100 µM throughout. The compound further displayed a TGI with M19-MEL melanoma of more than 100 µM.

Regarding `COCCOCOc1ccc(OCOCCOC)c2c1C(=O)c1ccccc1C2=O`, the TGI with DLD-1 colon, with HL-60(TB) leukemia, in the test with SF-295 CNS, in the test with HOP-62 NSCLC, in the test on SF-539 CNS and with LOX IMVI melanoma was more than 100 µM in each case. In addition, the TGI in the test with M19-MEL melanoma came to 39 µM.

Regarding `Cc1ccc(S(=O)OC2C3CC4CC(C3)CC2C4)cc1` (stereo not drawn), the TGI in the test with DLD-1 colon, in the test on HL-60(TB) leukemia, with SF-295 CNS, in the test on HOP-62 NSCLC, with SF-539 CNS and in the test on LOX IMVI melanoma was more than 100 µM in each case. The same compound showed a TGI with M19-MEL melanoma of more than 100 µM.

Take `CCO/C=C1\N=C(c2ccccc2Br)OC1=O`: the TGI in the test with DLD-1 colon, with HL-60(TB) leukemia, with SF-295 CNS, in the test on HOP-62 NSCLC, with SF-539 CNS and in the test on LOX IMVI melanoma was more than 100 µM each time. In the test with M19-MEL melanoma, this compound registered a TGI of more than 100 µM.

As to `CN1COc2c(n(C)c(=O)[nH]c2=O)C1`, the TGI is more than 100 µM in the test on DLD-1 colon; more than 80.3 µM in the test with HL-60(TB) leukemia; more than 100 µM with SF-295 CNS; more than 100 µM in the test with HOP-62 NSCLC; more than 100 µM in the test on SF-539 CNS; more than 100 µM with M19-MEL melanoma.
